# Assay results published in publication PMC12509006, “Synthesis and Evaluation of Pyridine-Based Antibacterial Agents that Inhibit ATP Synthase in Acinetobacter baumannii” (ACS Omega, 2025).
# Where two headings read alike, the source gives them in different places.
# How the values were obtained:
# [1] = target: T1, A. baumannii ATP synthase (Acinetobacter baumannii, UniProt A3M139); assay: AB ATP synthase inhibition: NADH-driven ATP synthesis in inverted inner membrane vesicles, luciferin/luciferase readout; type: biochemical; details: for Hill coefficient (Hill slope): fit of ATP synthesis dose response curve
# T1 construct: endogenous electron transport chains of inverted inner membrane vesicles were energized with NADH; endogenous in cells; host or cells: inverted inner membrane vesicles prepared from A. baumannii ATCC 17978 cells
# Method: Once synthesized, the pyridine compounds were tested for their ability to inhibit ATP synthase activity using our previously reported luciferin/luciferase assay. Briefly, endogenous electron transport chains of inverted inner membrane vesicles were energized with NADH to generate a proton gradient and to drive ATP synthesis. ATP was measured via luminescence from the luciferase-catalyzed oxidation of D-luciferin. Luminescence activities across increasing inhibitor concentrations were corrected for gradient independent background sources of ATP by comparison with a control containing the protonophore CCCP (carbonyl cyanide 3-chlorophenylhydrazone). The data were then fit to a four-parameter logistic dose–response curve, from which IC50 values and Hill coefficients were determined using a nonlinear least-squares regression.
# A. baumannii (ATCC 17978) cells were grown in LB medium at 37 °C with shaking at 150 rpm and harvested by centrifugation in the late exponential phase of growth. Cells were resuspended in TMG buffer (50 mM Tris-HCl, pH 7.5, 5 mM MgCl2, 10% v/v glycerol) with 1 mM phenylmethanesulfonyl fluoride, 1 mM dithiothreitol, and a small amount of DNase and lysed by two passes through an Avestin B15 homogenizer at 19,000 psi. Lysate was cleared by centrifugation at 9000g and inverted membrane vesicles were collected from the supernatant by centrifugation at 169,000g. To reduce background ATP synthesis activity in AB vesicles, it was important to wash the membranes by resuspending in TMG buffer and centrifuging again at 169,000g. Washed pellets were resuspended in TMG buffer, and aliquots were stored at −80 °C. Once thawed, aliquots were not refrozen. Protein concentration in membrane vesicles was determined using a modified Lowry assay.
# In vitro ATP synthesis activity of inverted inner membrane vesicles was measured as previously described. A reaction solution was prepared containing 5 mM tricine-KOH, pH 8.0, 50 mM KCl, 2.5 mM MgCl2, 0.1 mM adenosine diphosphate, 3.75 mM potassium phosphate, and 2.5 mM NADH and distributed into a 96-well plate. NADH-driven ATP synthesis was initiated by addition of inverted vesicles to 50 μg/mL and allowed to proceed for 10 min. The reaction was stopped by transferring an aliquot into 1% trichloroacetic acid. The stopped reaction was diluted 100-fold with deionized water and a sample was transferred to luciferase solution containing 25 mM tricine-NaOH, pH 7.8, 5 mM MgSO4, 0.1 mM EDTA, 0.1 mM NaN3, 150 μg/mL luciferin, and 7.5 μg/mL luciferase. Luminescence was measured in an opaque white 96-well plate using a BioTek H1 multimode plate reader. Each replicate set included a positive control containing DMSO with no compound and a negative control containing carbonyl cyanide 3-chlorophenylhydrazone (CCCP). Luminescence values were corrected for background by subtracting the CCCP control and normalized to the luminescence of the DMSO control. Normalized activity was fit using a variable-slope dose response curve. Nonlinear regression, including prediction of 95% confidence bands, and pairwise comparisons of fits using the F-test method were completed using GraphPad Prism10. Relativeactivity=1/1+(c/IC50)^Hillslope […]
# Figure S1. ATP synthesis inhibition by all pyridine compounds in order of WSA compound number. ATP synthesis activities in inverted inner membrane vesicles prepared from AB cells were measured in the presence of 0.0625-64 µg/mL, corrected for background ATP, and normalized to activity with DMSO alone (see methods). For each plot, dots are normalized activities at each concentration (n≥3) on a log 2 scale, solid lines are fitted dose response curves, and dashed lines show the 95% confidence range of the fit. IC50
# [2] = tested on: AB electron transport chain (ETC); assay: AB electron transport chain inhibition: NADH-driven H+ pumping, ACMA fluorescence quenching; type: biochemical, Acinetobacter baumannii; details: at 2 μg/mL compound
# Method: To ensure that the pyridine analogs were selectively inhibiting AB ATP synthase, each analog was also evaluated for inhibition of the AB electron transport chain (ETC) at 2 μg/mL using a standard protocol. − Briefly, respiratory dehydrogenase complexes were energized with NADH to initiate redox-driven H^+ pumping into the vesicle lumen, which was in turn detected by the quenching of 9-amino-6-chloro-2-methoxyacradine fluorescence. Most compounds were tested at concentrations of 2 μg/mL to establish whether ETC inhibition occurred in the same range as ATP synthase inhibition (Figure S2).
# NADH-driven proton pumping activity in inverted membrane vesicles was measured as previously described. Briefly, vesicles were diluted to 0.5 mg/mL in HMK buffer (50 mM HEPES, 2 mM MgCl2, 300 mM KCl, pH 7.5) with 0.3 μg/mL 9-amino-6-chloro-2-methoxyacridine (ACMA) and distributed into wells of a black 96-well plate containing various concentrations of inhibitors dissolved in DMSO. ACMA fluorescence (λex = 415 nm, λem = 485 nm) was monitored using a BioTek H1 multimode plate reader. Proton pumping was initiated by addition of NADH to 0.8 mM and terminated by addition of nigericin to 0.5 μg/mL. Activity was defined as the percent quenching of fluorescence, where fluorescence values are normalized to the maximum fluorescence following the addition of nigericin.
# Figure S2. Inhibition of the AB electron transport chain (ETC) by compounds at 2 µg/mL.
# ETC H+-pumping activity in inverted inner membrane vesicles prepared from AB cells was determined by the quenching of ACMA dye upon initiation with NADH. Addition of nigericin returned fluorescence to baseline, and relative fluorescence quenching is defined as the minimum fluorescence over the maximum fluorescence after addition of nigericin. Relative ETC inhibition (bars) is the fraction of fluorescence quenching decreased by the presence of 2 µg/mL compound.
# (1 picture or pasted object on this page, not shown here)
# HEK 293 cells = assay: XTT cell viability cytotoxicity assay; details: n = 3, 24 h treatment
# MDR AB BAA 1605 = assay: Broth microdilution antimicrobial susceptibility assay, MDR isolate; details: Acinetobacter baumannii, BAA1605, read-out: MIC, MDR AB BAA 1605
# AB ATCC 17978 [3] = assay: Broth microdilution antimicrobial susceptibility assay, susceptible isolate; details: Acinetobacter baumannii, ATCC17978, read-out: MIC, AB ATCC 17978
# AB BAA 1605 = assay: Checkerboard assay with colistin sulfate, BAA 1605; details: for MIC: Acinetobacter baumannii, BAA1605, read-out: MIC alone, AB BAA 1605; for fold change of MIC, AB BAA 1605: alone vs +colistin; for fractional inhibitory concentration index (FICI) / interaction with colistin, MDR AB BAA 1605: synergistic FICI ≤ 0.5, additivity FICI 0.5 < x < 1
# Method: (§1) Synthesized compounds in DMSO (2–128 μg/mL, row G-A) were combined with colistin sulfate in ultra purified water (0.125–32 μg/mL, column 2–10) in a 96-well microtiter plate checkerboard assay against ATCC 17978 and BAA-1605 (MDR). Briefly, liquid cultures of bacteria were grown for 14–16 h by inoculating a single bacterial culture into 10 mL TSB. To each well 88 μL of TSB, 10 μL of bacteria culture, and 1 from each master plate was added (see layout below). Plates were covered and incubated at 37 °C for 12–18 h.
# AB ATCC 17978 [4] = assay: Checkerboard assay with colistin sulfate, ATCC 17978; details: for MIC: Acinetobacter baumannii, ATCC17978, read-out: MIC alone, AB ATCC 17978; for fold change of MIC, AB ATCC 17978: alone vs +colistin; for fractional inhibitory concentration index (FICI) / interaction with colistin, AB ATCC 17978: synergistic FICI ≤ 0.5, additivity FICI 0.5 < x < 1
# Method: as §1
# [5] = inverted inner membrane vesicles, 0.0625-64 µg/mL, n≥3, Table S1, read-out: AB ATP Synthase Inhibition IC50 (converted)
# [6] = Figure 2, read-out: IC50, AB ATP synthase inhibition (converted)
# T1 sequence (A3M139 whole entry): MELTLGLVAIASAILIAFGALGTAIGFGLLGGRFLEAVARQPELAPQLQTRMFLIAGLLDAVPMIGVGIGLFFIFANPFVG
Compound,Hill coefficient (Hill slope) [1],"IC50 [1, 5]",ETC inhibition [2],"MIC, HEK 293 (cytotoxicity) (HEK 293 cells)",MIC (MDR AB BAA 1605),MIC (AB ATCC 17978 [3]),"IC50 [1, 6]",MIC (AB BAA 1605),"fold change of MIC, AB BAA 1605 (AB BAA 1605)","fractional inhibitory concentration index (FICI) / interaction with colistin, MDR AB BAA 1605 (AB BAA 1605)","MIC +colistin, AB BAA 1605 (AB BAA 1605; with 0.25 μg/mL colistin)",MIC (AB ATCC 17978 [4]),"fold change of MIC, AB ATCC 17978 (AB ATCC 17978 [4])","MIC +colistin, AB ATCC 17978 (AB ATCC 17978 [4]; with 0.5 μg/mL colistin)","MIC +colistin, AB BAA 1605 (AB BAA 1605; with 0.125 μg/mL colistin)","fractional inhibitory concentration index (FICI) / interaction with colistin, AB ATCC 17978 (AB ATCC 17978 [4])","MIC +colistin, AB ATCC 17978 (AB ATCC 17978 [4]; with 0.25 μg/mL colistin)",Hill coefficient (Hill slope) ([1]; listed as WSA305),"MIC alone, AB BAA 1605 (AB BAA 1605; without partner drug)","MIC alone, AB ATCC 17978 (AB ATCC 17978 [4]; without partner drug)"
CN1CCN(CCNCc2cc(-c3ccc(F)cc3)cnc2SCc2ccccc2)CC1 [WSA 273],-0.8,1.89 µM,40%,4 µg/mL,128 µg/mL,32 µg/mL,–,–,–,–,–,–,–,–,–,–,–,–,–,–
CN1CCN(CCNCc2cc(-c3ccc(F)cc3F)cnc2SCc2ccccc2)CC1 [WSA 274],-0.8,1.71 µM,40%,4 µg/mL,128 µg/mL,32 µg/mL,–,–,–,–,–,–,–,–,–,–,–,–,–,–
CN1CCN(CCNCc2cc(-c3ccc(N(C)C)cc3)cnc2SCc2ccccc2)CC1 [WSA 276],-0.6,–,–,16 µg/mL,32 µg/mL,16 µg/mL,0.673 µM,32 µg/mL,4,synergy,8 (0.25 μg/mL Col),16 µg/mL,2,8 (0.5 μg/mL Col),–,–,–,–,–,–
Cc1ccc(-c2cnc(SCc3ccccc3)c(CNCCN3CCN(C)CC3)c2)cc1 [WSA 280],-0.8,–,–,16 µg/mL,32 µg/mL,16 µg/mL,1.54 µM,32 µg/mL,2,–,–,16 µg/mL,2,8 (0.5 μg/mL Col),16 (0.125 μg/mL Col),–,–,–,–,–
COc1ccc(-c2cnc(SCc3ccccc3)c(CNCCC3CCN(C4CCCC4)CC3)c2)cc1 [WSA 288],-0.9,–,–,16 µg/mL,32 µg/mL,16 µg/mL,0.485 µM,32 µg/mL,4,synergy,8 (0.25 μg/mL Col),16 µg/mL,4,–,–,≤ 0.5,–,–,–,–
Cc1ccc(-c2cnc(SCc3ccccc3)c(CNCCC3CCN(C4CCCC4)CC3)c2)cc1 [WSA 289],-0.7,–,–,16 µg/mL,32 µg/mL,16 µg/mL,0.48 µM,32 µg/mL,2,–,–,16 µg/mL,4,–,16 (0.125 μg/mL Col),≤ 0.5,–,–,–,–
Fc1ccc(-c2cnc(SCc3ccccc3)c(CNCc3ccc(CN4CCCC4)cc3)c2)cc1 [WSA 298],-0.8,–,–,16 µg/mL,32 µg/mL,16 µg/mL,1.31 µM,32 µg/mL,4,synergy,8 (0.25 μg/mL Col),16 µg/mL,2,–,–,–,8 (0.25 μg/mL Col),–,–,–
CCN1CCC(CCNCc2cc(-c3ccc(OC)cc3)cnc2SCc2ccccc2)CC1 [WSA 305],-0.6,0.568 µM,–,4 µg/mL,32 µg/mL,32 µg/mL,–,–,–,–,–,–,–,–,–,–,–,-0.7,–,–
CCN1CCC(CCNCc2cc(-c3ccc(OC)c(F)c3)cnc2SCc2ccccc2)CC1 [WSA 306],-0.9,1.07 µM,–,16 µg/mL,32 µg/mL,32 µg/mL,–,–,–,–,–,–,–,–,–,–,–,–,–,–
CCN1CCC(CCNCc2cc(-c3ccc(F)cc3)cnc2SCc2ccccc2)CC1 [WSA 307],-0.8,1.16 µM,–,8 µg/mL,32 µg/mL,32 µg/mL,–,–,–,–,–,–,–,–,–,–,–,–,–,–
CCN1CCC(CCNCc2cc(-c3ccc(F)cc3F)cnc2SCc2ccccc2)CC1 [WSA 308],-0.9,1.81 µM,–,16 µg/mL,64 µg/mL,32 µg/mL,–,–,–,–,–,–,–,–,–,–,–,–,–,–
colistin [reference compound],–,–,–,–,–,–,–,–,–,–,–,–,–,–,–,–,–,–,1 µg/mL,2 µg/mL
